pEC50: −log10 of the molar value.
Legend:
Human FXR full length = biological target: T1, Human FXR full length (Homo sapiens, UniProt Q96RI1); test: FXR activity screen, luciferase reporter in transfected CV-1 cells; format: cell-based; settings: fexaramine control in the retest; read-out: Fex EC50
T1 construct: Human FXR full length and RXR full length was obtained from Ronald Evans' laboratory; expressed in transfected cells; host or cells: CV-1 cells
T1 sequence (Q96RI1 1-476 isoform Q96RI1-1): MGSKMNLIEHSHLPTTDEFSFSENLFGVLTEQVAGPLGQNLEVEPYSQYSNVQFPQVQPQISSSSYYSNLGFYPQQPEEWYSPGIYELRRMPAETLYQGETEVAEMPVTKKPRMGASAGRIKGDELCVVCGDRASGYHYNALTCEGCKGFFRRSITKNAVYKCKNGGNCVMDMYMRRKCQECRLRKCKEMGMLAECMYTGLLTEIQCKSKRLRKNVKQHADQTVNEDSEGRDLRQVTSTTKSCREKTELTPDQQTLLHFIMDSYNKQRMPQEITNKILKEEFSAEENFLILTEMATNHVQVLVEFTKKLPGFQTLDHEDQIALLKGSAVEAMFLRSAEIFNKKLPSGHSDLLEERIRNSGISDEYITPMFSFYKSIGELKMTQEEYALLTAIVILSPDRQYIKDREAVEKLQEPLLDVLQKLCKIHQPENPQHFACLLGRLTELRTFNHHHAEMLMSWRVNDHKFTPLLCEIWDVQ
T1 sequence (P19793 1-462 partner): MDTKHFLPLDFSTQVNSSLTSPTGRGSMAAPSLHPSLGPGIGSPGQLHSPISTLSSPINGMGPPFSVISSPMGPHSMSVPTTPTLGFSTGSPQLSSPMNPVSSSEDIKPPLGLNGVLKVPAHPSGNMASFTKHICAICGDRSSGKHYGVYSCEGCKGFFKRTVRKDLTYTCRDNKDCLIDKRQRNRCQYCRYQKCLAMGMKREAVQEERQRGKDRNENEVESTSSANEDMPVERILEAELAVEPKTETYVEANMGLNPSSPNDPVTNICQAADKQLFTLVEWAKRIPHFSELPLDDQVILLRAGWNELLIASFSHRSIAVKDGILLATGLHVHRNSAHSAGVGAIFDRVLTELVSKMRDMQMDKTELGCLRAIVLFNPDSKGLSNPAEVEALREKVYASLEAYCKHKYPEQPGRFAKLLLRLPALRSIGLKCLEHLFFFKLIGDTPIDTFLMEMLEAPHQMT
Procedure, shortened: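 CV-1 cells in charcoal-stripped serum, transfected with full-length human FXR, RXR, FXRE-luciferase reporter and β-Gal; 48 h expression, then 24 h compound (0.001–100 μM, quadruplicate, 1:1000 DMSO dilution). Luciferase normalized to β-galactosidase; fold induction vs untreated, efficacy relative to fexaramine, EC50 by non-linear regression.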

[1] = tested on: pancreatic islets gene expression; test: RNA-Seq of pancreatic islets of treated ob/ob mice; format: in vivo; settings: fexaramine 100 mg/kg 5 weeks, analogs 50 mg/kg 2 weeks
Protocol: Pancreatic islets were isolated from ob/ob mice after daily treatment by oral gavage with fexaramine (100 mg/kg for 5 weeks), FEX-D (50 mg/kg for 2 weeks) or SALK110 (NSSK00110, 50 mg/kg for 2 weeks). Changes in gene expression were determined by RNA-Seq.

human L cells = test: oxygen consumption rate of intestinal L cells (Seahorse analyzer); format: cell-based; settings: fexaramine 1 μM for 24 hours
Protocol: FIG. 41 is a graph showing the effects of modulating FXR activity on the oxidative metabolism of intestinal L cells. L cells were treated with the FXR agonist fexaramine, the FXR antagonist Guggulsterone, or a combination of both, prior to measurement of their oxygen consumption rate (OCR) in a Seahorse analyzer.
To examine the effects of FXR in the secretion of GLP-1, the metabolic changes induced in human L cells was measured by treatment with the FXR agonist, fexaramine and an FXR antagonist guggulsterone. Treatment of L cells with fexaramine (1 μM for 24 hours) lead to an increase in the oxygen consumption rate (OCR), consistent with increased mitochondrial activity and consequently, an increased energetic state (FIG. 41). The reverse effect was seen after treatment with the FXR antagonist, guggulsterone, with lower OCR after drug treatment.

[2] = tested on: C57BL/6J mice with intragastric ethanol feeding; test: alcoholic liver disease, Tsukamoto-French mouse model; format: in vivo; settings: ethanol feeding 3 weeks; 100 mg/kg/day oral gavage
Protocol: FIGS. 44A-44C are a (A) digital image of histology images of the liver and (B) and (C) bar graphs showing that administration of fexaramine can protect the liver from alcoholic liver disease, for example by decreasing fat in the liver, liver enzyme ALT and triglycerides (TG). C57BL/6J mice, fed an isocaloric diet or ethanol through continuous intragastric feeding for 3 weeks, were co-administered Fexaramine (100 mg/kg/day oral gavage) or vehicle. (A) Histological liver sections from ethanol fed mice after vehicle or fexaramine treatment. (B) Bar graph of serum alanine aminotransferase (ALT) levels in vehicle and fexaramine treated mice after 3 weeks of an ethanol diet (C) Liver triglyceride levels in vehicle and fexaramine treated mice after 3 weeks of an ethanol or isocaloric (control) diet.
The Tsukamoto-French mouse model, which involves continuous intragastric feeding of isocaloric diet or ethanol for 3 weeks, was used. C57BL/6J mice were co-administered vehicle or fexaramine by oral gavage (100 mg/kg/day). Mice were sacrificed after treatment and conjugated and unconjugated bile acid levels measured in serum and liver by liquid chromatography/mass spectrometry.

**Q.** Which results are given for `COC(=O)/C=C/c1cccc(N(Cc2ccc(-c3ccc(N(C)C)cc3)cc2)C(=O)C2CCCCC2)c1` [Fexaramine, fexaramine]?
**A.** pEC50 (Human FXR full length): 7.20; gene induction in islets (intracellular signaling, insulin secretion, exocytosis) [1]: induce a common set of genes; oxygen consumption rate (OCR) (human L cells): increase; hepatic steatosis [2]: decreasing hepatic steatosis; serum levels of alanine aminotransferase (ALT) [2]: decreased

Reference: US20190084939A1, “ANALOGS OF FEXARAMINE AND METHODS OF MAKING AND USING” (Salk Institute for Biological Studies, priority 2014, published 2019)
